What was measured:
[1] = test system: Streptococcus equi subsp zooepidemicus; test: Bacterial growth screening on wild-type phenotype strain, S. zooepidemicus; type: cell-based
Experimental: (§1) The bacterial growth is evaluated by measuring the optical density (DO) at 600 nm using NanoDrop.
(§2) This ratio permits a classification of the molecules in 4 effect levels: • 0=no effect observed; • 1=effect observed only when the molecule is tested pure; • 2=effect observed at several concentrations, but which gradually decreases the dilutions; • 3=strong effect observed at each concentration of molecule tested.
A screening of molecules of the invention on several wild-type phenotype strains has been carried out.
The strains initially selected are: • Gram+: Streptococcus equi subsp zooepidemicus and Staphylococcus aureus • Gram−: Escherichia coli, Klebsiella pneumoniae and Stenotrophomonas maltophila.

[2] = test system: K. pneumoniae strains presenting high levels of resistance; test: Bacterial growth on K. pneumoniae strains presenting high levels of resistance; type: cell-based, Klebsiella pneumoniae; parameters: key to Effects (0 < 1 < 2 < 3): 0 = no effect; 1 = pure only; 2 = several concs; 3 = strong at each; key to Δ DO: change in optical density measured at 600 nm; settings: for Effects (0 < 1 < 2 < 3): molecules at 1, 0.5 and 0.1 mg/ml, triclosan at 0.1 mg/ml
Experimental: as §1, §2
Compounds of the invention were tested on 4 strains of E. coli, 3 strains of K. pneumoniae and 4 strains of S. aureus with the resistance profiles below.

## COc1cc(O)c(Br)c(Cl)c1F [sr7615]
[1]
  Effect level, S. zooepidemicus: 3
[2]; K. pneumoniae Strain 1, 0.1 mg/ml
  Δ DO: 0.025
[2]; K. pneumoniae Strain 1, 0.5 mg/ml
  Δ DO: 0.490
[2]; K. pneumoniae Strain 1, 1 mg/ml
  Δ DO: 0.640
[2]; K. pneumoniae Strain 1
  Effects (0 < 1 < 2 < 3): 2
[2]; K. pneumoniae Strain 2, 0.1 mg/ml
  Δ DO: −0.021
[2]; K. pneumoniae Strain 2, 0.5 mg/ml
  Δ DO: 0.518
[2]; K. pneumoniae Strain 2, 1 mg/ml
  Δ DO: 0.621
[2]; K. pneumoniae Strain 2
  Effects (0 < 1 < 2 < 3): 2
[2]; K. pneumoniae Strain 3, 0.1 mg/ml
  Δ DO: 0.134
[2]; K. pneumoniae Strain 3, 0.5 mg/ml
  Δ DO: 0.598
[2]; K. pneumoniae Strain 3, 1 mg/ml
  Δ DO: 0.913
[2]; K. pneumoniae Strain 3
  Effects (0 < 1 < 2 < 3): 2

— patent US20210337789A1, “Derivatives of m-Guaiacol, Their Preparation and Their Uses” (Universite de Caen Normandie, priority 2018, published 2021)
